Measured values published in PubChem BioAssay (NCI).
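Method: 48-hour compound exposure of cells in 96-well plates, five concentrations, linear interpolation of endpoints. GI50 marks 50% less growth. At the TGI there is no net growth.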

How the values were obtained:
Experiment in all cases: NCI-60 cell line screen, 48 h
SK-MEL-2 melanoma = test system: SK-MEL-2 melanoma
HCT-15 colon = test system: HCT-15 colon
COLO 205 colon = test system: COLO 205 colon
T-47D breast = test system: T-47D breast
OVCAR-3 ovarian = test system: OVCAR-3 ovarian
NCI-H23 lung = test system: NCI-H23 lung
RPMI-8226 leukemia = test system: RPMI-8226 leukemia
MDA-MB-231 breast = test system: MDA-MB-231 breast
MDA-N = test system: MDA-N
MALME-3M melanoma = test system: MALME-3M melanoma

SMILES | TGI (SK-MEL-2 melanoma) [µM] | TGI (HCT-15 colon) [µM] | TGI (COLO 205 colon) [µM] | TGI (T-47D breast) [µM] | TGI (OVCAR-3 ovarian) [µM] | TGI (NCI-H23 lung) [µM] | TGI (RPMI-8226 leukemia) [µM] | TGI (MDA-MB-231 breast) [µM] | TGI (MDA-N) [µM] | TGI (MALME-3M melanoma) [µM] | GI50 (SK-MEL-2 melanoma) [µM] | GI50 (HCT-15 colon) [µM] | GI50 (COLO 205 colon) [µM] | GI50 (T-47D breast) [µM] | GI50 (OVCAR-3 ovarian) [µM] | GI50 (NCI-H23 lung) [µM] | GI50 (RPMI-8226 leukemia) [µM] | GI50 (MDA-MB-231 breast) [µM] | GI50 (MALME-3M melanoma) [µM]
COC(=O)C1=C(O)CCCC(C2CCCCC(=O)C2C(=O)OC)=C1 (configuration not stated) | > 100 | > 100 | > 100 | > 100 | > 100 | > 100 | > 100 | > 100 | > 100 | – | – | – | – | – | – | – | – | – | –
CN(CCCNC(=O)c1nn(C)c2c1Cc1ccccc1-2)CCCNC(=O)c1nn(C)c2c1Cc1ccccc1-2 | 32 | 40.4 | 30.2 | 61.8 | 38 | 47.3 | 35.9 | 36.1 | – | 37.2 | – | – | – | – | – | – | – | – | –
O=P(Nc1ccccc1)(Oc1ccccc1)N(CCCl)CCCl (configuration not stated) | > 100 | > 100 | > 100 | – | > 100 | > 100 | – | – | – | > 100 | – | – | – | – | – | – | – | – | –
O=C(Nc1ccccc1Cl)c1ccc([N+](=O)[O-])cc1 | > 100 | > 100 | > 100 | – | > 100 | > 100 | > 100 | – | – | > 100 | – | – | – | – | – | – | – | – | –
COc1cc(C2C3=C(CCCC3=O)N(c3ccc(C)cc3)C3=C2C(=O)CCC3)c([N+](=O)[O-])cc1OC | – | > 100 | – | – | > 100 | > 100 | > 100 | – | – | – | – | – | – | – | – | – | – | – | –
Cc1cc(OCCOCCC(F)(F)P(=O)(O)O)ccc1CCc1cnc2c(N)nc3cc(CCC(=O)O)ccc3c2c1 | > 100 | > 100 | > 100 | > 100 | > 100 | > 100 | > 100 | > 100 | – | > 100 | > 100 | > 100 | > 100 | > 100 | > 100 | > 100 | > 100 | > 100 | > 100
CCn1c2c(c3ccccc31)[C@@H](c1ccc(Cl)cc1)CC1C(=O)N(c3ccccc3)C(=O)C21 (some centres not stated) | > 100 | > 100 | > 100 | – | > 100 | > 100 | > 100 | – | – | > 100 | – | – | – | – | – | – | – | – | –
C=CC(C)C1(CCCOCc2ccccc2)C(=S)N2CCC3(CC24CCCC14)OCCO3 (configuration not stated) | > 100 | > 100 | > 100 | – | > 100 | > 100 | 10.4 | – | – | > 100 | – | – | – | – | – | – | – | – | –
S=c1nc(N/N=C/c2cccs2)c2cn[nH]c2[nH]1 | > 100 | 64.1 | > 100 | > 100 | 34.1 | 66.4 | 62.6 | > 100 | – | > 100 | – | – | – | – | – | – | – | – | –
OC12c3ccccc3C1CCCCCCCCCC21OCCO1 (configuration not stated) | > 100 | > 100 | > 100 | – | > 100 | > 100 | > 100 | – | – | > 100 | – | – | – | – | – | – | – | – | –
COC(=O)CNC(=O)CCC(C)[C@H]1CCC2C3C(C[C@H](OC(C)=O)[C@@]21C)[C@@]1(C)CCC2(C[C@H]1C[C@H]3OC(C)=O)OOC1(CC[C@]3(C)C4C[C@H](OC(C)=O)[C@@]5(C)C(CC[C@@H]5C(C)CCC(=O)NCC(=O)OC)C4[C@H](OC(C)=O)C[C@@H]3C1)OO2 (some centres not stated) | 1.66 | 5.42 | – | 22.4 | 15.9 | 3.66 | – | 5.96 | > 50 | 1.93 | – | – | – | – | – | – | – | – | –
Cc1cc2n[n+]3[n-]cc(-c4ccccc4)n3c2cc1[N+](=O)[O-] | > 100 | > 100 | > 100 | > 100 | > 100 | – | > 100 | > 100 | – | – | – | – | – | – | – | – | – | – | –
CCOC1NC(=O)Oc2cc3ccccc3cc21 (configuration not stated) | – | > 100 | > 100 | > 100 | > 100 | > 100 | > 100 | > 100 | > 100 | > 100 | – | – | – | – | – | – | – | – | –
Nc1ccc2ccc(N3CCNCC3)nc2n1 | > 100 | > 100 | > 100 | – | > 100 | > 100 | > 100 | > 100 | > 100 | > 100 | – | – | – | – | – | – | – | – | –
C=CCN1/C(=C2\SC(=S)N(c3ccc(C)cc3)C2=O)Sc2c1ncn(C)c2=O | > 100 | > 100 | > 100 | – | – | > 100 | > 100 | – | – | – | – | – | – | – | – | – | – | – | –
CCCCCCCCCCCCCC[n+]1ccc(C(N)=O)cc1 | – | 49.6 | 2.69 | 14 | 5.39 | 15.2 | 3.03 | 4.6 | – | 7.72 | – | 7.19 | 1.27 | 3.13 | 1.54 | 2.42 | 0.731 | 1.85 | 2.27
CCOC(=O)C(Cc1ccccc1)NC(=O)c1[nH]cnc1/N=N/N(C)C (configuration not stated) | > 100 | > 100 | > 100 | – | > 100 | > 100 | > 100 | – | – | > 100 | – | – | – | – | – | – | – | – | –
COC(=O)C1=C(C(=O)OC)C(N(C)C)C(C(=O)OC)=C(C(=O)OC)S1 | > 100 | > 100 | > 100 | > 100 | > 100 | > 100 | > 100 | > 100 | > 100 | – | – | – | – | – | – | – | – | – | –
O=c1[nH]nc(Cc2ccccc2)n1/N=C/c1cccnc1 | – | > 100 | > 100 | > 100 | > 100 | > 100 | > 100 | > 100 | > 100 | > 100 | – | – | – | – | – | – | – | – | –
NC(=O)CC(N)C(=O)NC(Cc1ccccc1)C(=O)NC(Cc1ccccc1)NC(=O)C(Cc1c[nH]c2ccccc12)C(=O)O (configuration not stated) | > 100 | > 100 | > 100 | > 100 | > 100 | > 100 | > 100 | > 100 | – | > 100 | – | – | – | – | – | – | – | – | –
O=C(N/N=C\c1cccc2ccccc12)Nc1cccc2ccccc12 | > 100 | > 100 | > 100 | > 100 | – | > 100 | – | 45.8 | 21.2 | > 100 | – | – | – | – | – | – | – | – | –
COC(=O)[C@]1(c2ccc(N(C)C)cc2OC)C[C@@H]2CCCN(CCc3c1[nH]c1ccccc31)C2 | 36.2 | 46.6 | 27.3 | – | 36.4 | > 51.1 | 63.2 | – | – | 33.2 | – | – | – | – | – | – | – | – | –
O=c1[nH]c2nccn2c2c1SCCN2 | > 100 | > 100 | > 100 | > 100 | > 100 | > 100 | > 100 | – | > 100 | > 100 | – | – | – | – | – | – | – | – | –
CNC(=O)SCC(NC(=O)CCC(N)C(=O)O)C(=O)NCC(=O)O (configuration not stated) | > 100 | > 100 | > 100 | – | > 100 | > 100 | > 100 | – | – | > 100 | – | – | – | – | – | – | – | – | –
